From PMC5689168 (Biochemistry and Biophysics Reports, 2016)
Where “and” joins values, the source holds several entries; their conditions need not be identical. Equal values may be shown once. Entries after “also recorded” stand apart in the source; their conditions may differ. Read-outs that look alike come from different tables or passages of the source.

Tests used:
α1β2γ2 receptors = conditions: read-out: EC50 for potentiation; cited from earlier work
α1β2 GABAA receptor = α1β2 GABAA receptor (Rattus norvegicus, UniProt P62813+P63138); format: cell-based, rat α1, rat β2
Sequence of α1β2 GABAA receptor (P62813 28-455): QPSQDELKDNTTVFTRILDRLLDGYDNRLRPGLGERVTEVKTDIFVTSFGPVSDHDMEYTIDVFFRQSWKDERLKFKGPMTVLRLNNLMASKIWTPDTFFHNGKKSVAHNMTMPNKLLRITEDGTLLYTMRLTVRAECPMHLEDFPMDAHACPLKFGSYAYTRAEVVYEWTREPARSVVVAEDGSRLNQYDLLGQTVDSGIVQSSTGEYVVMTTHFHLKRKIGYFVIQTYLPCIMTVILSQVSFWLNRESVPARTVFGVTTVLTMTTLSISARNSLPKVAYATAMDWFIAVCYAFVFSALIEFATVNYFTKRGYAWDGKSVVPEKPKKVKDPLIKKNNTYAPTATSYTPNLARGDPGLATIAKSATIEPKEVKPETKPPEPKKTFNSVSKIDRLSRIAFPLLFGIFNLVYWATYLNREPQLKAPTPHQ
Sequence of α1β2 GABAA receptor (P63138 25-474 limits assumed): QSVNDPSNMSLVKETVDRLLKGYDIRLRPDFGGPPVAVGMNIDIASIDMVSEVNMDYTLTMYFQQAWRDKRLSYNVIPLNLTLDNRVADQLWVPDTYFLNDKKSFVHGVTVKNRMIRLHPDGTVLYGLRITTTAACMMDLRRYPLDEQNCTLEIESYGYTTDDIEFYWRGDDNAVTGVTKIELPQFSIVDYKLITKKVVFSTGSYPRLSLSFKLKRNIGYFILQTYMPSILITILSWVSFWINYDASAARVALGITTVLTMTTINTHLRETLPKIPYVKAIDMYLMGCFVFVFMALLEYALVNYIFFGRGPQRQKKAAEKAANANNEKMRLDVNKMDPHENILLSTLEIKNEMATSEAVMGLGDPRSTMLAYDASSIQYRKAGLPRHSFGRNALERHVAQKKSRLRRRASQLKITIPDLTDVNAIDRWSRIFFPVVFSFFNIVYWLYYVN

α1β2γ2 GABAA receptors = α1β2γ2 GABAA receptors (Rattus norvegicus, UniProt P62813+P63138); format: cell-based, rat α1, rat β2, murine γ2
Sequence of α1β2γ2 GABAA receptors (P62813 28-455): as the sequence (P62813 28-455) above
Sequence of α1β2γ2 GABAA receptors (P63138 25-474 limits assumed): as the sequence (P63138 25-474 limits assumed) above
Sequence of α1β2γ2 GABAA receptors (P22723 39-474 partner): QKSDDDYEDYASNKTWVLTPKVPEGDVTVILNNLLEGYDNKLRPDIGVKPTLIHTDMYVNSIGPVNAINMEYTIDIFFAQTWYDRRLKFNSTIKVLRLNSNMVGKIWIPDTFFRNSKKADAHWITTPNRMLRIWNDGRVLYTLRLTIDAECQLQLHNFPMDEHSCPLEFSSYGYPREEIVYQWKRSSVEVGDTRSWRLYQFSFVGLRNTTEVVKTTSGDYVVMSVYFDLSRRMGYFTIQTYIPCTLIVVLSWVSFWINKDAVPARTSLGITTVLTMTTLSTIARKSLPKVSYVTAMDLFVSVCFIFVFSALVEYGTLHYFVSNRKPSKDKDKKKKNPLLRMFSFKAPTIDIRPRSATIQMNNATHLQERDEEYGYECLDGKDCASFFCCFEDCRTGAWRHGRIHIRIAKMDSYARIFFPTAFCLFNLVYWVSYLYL

[1] = cited from earlier work
[2] = target: α1β2(N265M)γ2 GABAA receptors (Rattus norvegicus, UniProt P62813+P63138, N289M); test: Two-electrode voltage clamp on Xenopus laevis oocytes expressing mutant α1β2; format: cell-based, rat α1, rat β2, murine γ2
Sequence of α1β2(N265M)γ2 GABAA receptors (P62813 28-455): as the sequence (P62813 28-455) above
Sequence of α1β2(N265M)γ2 GABAA receptors (P63138 25-474 N289M limits assumed): as the sequence (P63138 25-474 limits assumed) above, with N265M counted along it
Sequence of α1β2(N265M)γ2 GABAA receptors (P22723 39-474 partner): as the sequence (P22723 39-474 partner) above

α1β3γ2 GABAA receptors = α1β3γ2 GABAA receptors (UniProt P28472+P62813); format: cell-based, rat α1, human β3, murine γ2
Sequence of α1β3γ2 GABAA receptors (P62813 28-455): as the sequence (P62813 28-455) above
Sequence of α1β3γ2 GABAA receptors (P28472 26-473): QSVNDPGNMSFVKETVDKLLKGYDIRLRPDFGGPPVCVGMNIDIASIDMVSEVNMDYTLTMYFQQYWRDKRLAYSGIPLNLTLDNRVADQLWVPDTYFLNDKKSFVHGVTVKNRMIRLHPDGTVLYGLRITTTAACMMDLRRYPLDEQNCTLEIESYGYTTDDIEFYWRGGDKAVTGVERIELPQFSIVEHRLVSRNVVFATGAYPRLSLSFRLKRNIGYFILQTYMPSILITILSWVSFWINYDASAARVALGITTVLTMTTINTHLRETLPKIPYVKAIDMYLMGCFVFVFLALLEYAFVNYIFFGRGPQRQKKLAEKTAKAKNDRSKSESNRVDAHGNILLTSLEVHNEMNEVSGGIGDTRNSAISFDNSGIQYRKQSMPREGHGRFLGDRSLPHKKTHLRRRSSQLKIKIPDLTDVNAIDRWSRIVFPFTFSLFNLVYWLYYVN
Sequence of α1β3γ2 GABAA receptors (P22723 39-474 partner): as the sequence (P22723 39-474 partner) above

[3] = target: α1β2(M286W)γ2 GABAA receptors (Rattus norvegicus, UniProt P62813+P63138, M310W); test: Two-electrode voltage clamp on Xenopus laevis oocytes expressing mutant α1β2; format: cell-based, rat α1, rat β2, murine γ2
Sequence of α1β2(M286W)γ2 GABAA receptors (P62813 28-455): as the sequence (P62813 28-455) above
Sequence of α1β2(M286W)γ2 GABAA receptors (P63138 25-474 M310W limits assumed): as the sequence (P63138 25-474 limits assumed) above, with M286W counted along it
Sequence of α1β2(M286W)γ2 GABAA receptors (P22723 39-474 partner): as the sequence (P22723 39-474 partner) above

α1β1γ2 GABAA receptors = α1β1γ2 GABAA receptors (Rattus norvegicus, UniProt P15431+P62813); format: cell-based, rat α1, rat β1, murine γ2
Sequence of α1β1γ2 GABAA receptors (P62813 28-455): as the sequence (P62813 28-455) above
Sequence of α1β1γ2 GABAA receptors (P15431 26-474): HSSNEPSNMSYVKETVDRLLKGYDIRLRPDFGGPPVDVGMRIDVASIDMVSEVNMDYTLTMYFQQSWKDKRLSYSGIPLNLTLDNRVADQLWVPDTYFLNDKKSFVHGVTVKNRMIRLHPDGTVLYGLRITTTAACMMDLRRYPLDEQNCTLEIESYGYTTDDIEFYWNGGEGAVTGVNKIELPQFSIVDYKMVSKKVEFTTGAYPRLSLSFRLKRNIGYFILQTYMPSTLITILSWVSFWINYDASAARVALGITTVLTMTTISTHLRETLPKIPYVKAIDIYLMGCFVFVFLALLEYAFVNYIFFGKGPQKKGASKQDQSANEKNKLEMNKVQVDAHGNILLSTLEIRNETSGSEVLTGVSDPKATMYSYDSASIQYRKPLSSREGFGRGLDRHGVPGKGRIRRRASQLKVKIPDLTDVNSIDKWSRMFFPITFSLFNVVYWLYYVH
Sequence of α1β1γ2 GABAA receptors (P22723 39-474 partner): as the sequence (P22723 39-474 partner) above

5HT3A receptor = conditions: cited from earlier work

## CC(C)c1cccc(C(C)C)c1O [propofol]
α1β2γ2 receptors
  EC50: ~2 µM

## CC1(C)C=Cc2c(ccc3c2OC[C@@H](c2ccc(O)cc2O)C3)O1 [glabridin]
α1β2 GABAA receptor
  EC50: 9.63 ± 0.7 µM
α1β2 GABAA receptor; α1β2, 30 µM glabridin
  Fold decrease of GABA EC50: 1.8 fold
α1β2 GABAA receptor; α1β2, 30 µM glabridin in the absence of GABA, normalized to GABA current
  Direct activation by 30 µM glabridin: 0.11±0.05
α1β2 GABAA receptor; α1β2, 30 µM glabridin, 3 µM GABA
  Fold potentiation by 30 µM glabridin: 4.23±0.56 fold
α1β2γ2 GABAA receptors; Modulatory EC50, α1β2γ2, potentiation of current evoked by 3 µM GABA
  EC50: 6 µM and 6.3 µM
α1β2γ2 GABAA receptors; α1β2γ2, 3 µM GABA
  Concentration at which potentiation of GABA-induced currents starts: 1 µM
  Concentration of maximal potentiation: approximately 30 µM
α1β2γ2 GABAA receptors; α1β2γ2, 3 µM GABA, 30 µM glabridin, 1 µM flumazenil
  Potentiating action of 30 µM glabridin in the presence of flumazenil: not significantly altered
α1β2γ2 GABAA receptors; α1β2γ2, 30 µM glabridin
  Fold decrease of GABA EC50: 12 fold and 12.3 fold
α1β2γ2 GABAA receptors; α1β2γ2, 30 µM glabridin in the absence of GABA, normalized to GABA current
  Direct activation by 30 µM glabridin: 0.07±0.02
α1β2γ2 GABAA receptors; α1β2γ2, 30 µM glabridin, 3 µM GABA
  Fold potentiation by 30 µM glabridin: 6.20±1.41 fold
α1β2γ2 GABAA receptors; α1β2γ2, 30 µM glabridin, listed as Glabridin
  Fold decrease of GABA EC50: approximately 12 fold
α1β2γ2 GABAA receptors; α1β2γ2, 100 µM glabridin in the absence of GABA, n=4
  Direct activation, share of the maximally evoked current by saturating GABA concentrations: up to 17±7%
α1β2γ2 GABAA receptors; α1β2γ2, components of Glycyrrhiza at 10 µM, n=3–4
  Screening for potentiation of GABA-induced currents: the only potentiator of the tested substances
α1β2γ2 GABAA receptors; α1β2γ2, glabridin up to 10 µM in the absence of GABA
  Direct activation at lower concentrations: failed to activate
α1β2γ2 GABAA receptors; α1β2γ2, in the absence of GABA
  Threshold concentration for direct activation: 30 µM
α1β2γ2 GABAA receptors; α1β2γ2, with 30 µM glabridin, p=0.055, n=4
  Maximally induced current evoked by 1 mM GABA: not significantly altered
[1]
  Crossing of the blood-brain-barrier: able to cross the blood-brain-barrier
[2]
  EC50: 32.6 ± 1.52 µM
[2]; α1β2(N265M)γ2, 30 µM glabridin
  Fold decrease of GABA EC50: 3.5 fold
α1β3γ2 GABAA receptors
  EC50: 6.83 ± 3.07 µM
α1β3γ2 GABAA receptors; α1β3γ2, 30 µM glabridin
  Fold decrease of GABA EC50: 6.8 fold
α1β3γ2 GABAA receptors; α1β3γ2, 30 µM glabridin in the absence of GABA, normalized to GABA current
  Direct activation by 30 µM glabridin: 0.08±0.04
α1β3γ2 GABAA receptors; α1β3γ2, 30 µM glabridin, 10 µM GABA
  Fold potentiation by 30 µM glabridin: 2.63±0.42 fold
[3]; 30 µM glabridin
  Fold decrease of GABA EC50: 0.75 fold
[3]; 30 µM glabridin, 3 µM GABA
  Fold potentiation by 30 µM glabridin: 1.04±0.05 fold
[3]; potentiation of current evoked by 3 µM GABA
  Modulatory EC50: Neither a potentiating effect nor any shift; also recorded: no potentiation
α1β1γ2 GABAA receptors
  EC50: 17.2 ± 2.64 µM
α1β1γ2 GABAA receptors; α1β1γ2, 30 µM glabridin
  Fold decrease of GABA EC50: 4.4 fold
α1β1γ2 GABAA receptors; α1β1γ2, 30 µM glabridin in the absence of GABA, normalized to GABA current
  Direct activation by 30 µM glabridin: 0.14±0.08
α1β1γ2 GABAA receptors; α1β1γ2, 30 µM glabridin, 1 µM GABA
  Fold potentiation by 30 µM glabridin: 5.07±1.45 fold
5HT3A receptor
  Action on 5HT3A receptor channel: blocker of the channel
